{"source": "paper PMC5785467", "about": "(Nature, 2018)", "target": "T1, beetle ICMT (Tribolium castaneum, UniProt D6WJ77)", "T1 sequence (D6WJ77 1-281)": "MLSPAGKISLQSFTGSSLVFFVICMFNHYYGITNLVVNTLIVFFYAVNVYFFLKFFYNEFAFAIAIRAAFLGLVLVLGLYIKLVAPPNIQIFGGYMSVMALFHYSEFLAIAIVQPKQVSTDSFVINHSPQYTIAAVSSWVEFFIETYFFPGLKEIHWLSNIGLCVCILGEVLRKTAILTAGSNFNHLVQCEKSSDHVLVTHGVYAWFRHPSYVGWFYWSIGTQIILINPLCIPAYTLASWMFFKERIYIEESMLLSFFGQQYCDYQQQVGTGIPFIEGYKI", "assay": "X-ray crystal structure, […] Å", "type": "binding", "details": "complex with monobody MB-15, lipidic cubic phase; cofactor site"}
{"compound": "Nc1ncnc2c1ncn2[C@@H]1O[C@H](CSCC[C@H](N)C(=O)O)[C@@H](O)[C@H]1O", "note": "[AdoHcy]", "values": [{"measurement": "X-ray crystal structure, 2.3 Å", "result": "AdoHcy is encapsulated within a pocket that is formed by the M6–M7 connector"}]}
